The structures appear in SMILES notation. Counter-ions that a name gives are not always drawn.

Data on eleven compounds can be found in patent US20100093702A1, “METHYLENE AMINES OF THIENO[2,3-d]PYRIMIDINE AND THEIR USE AS ADENOSINE A2a RECEPTOR ANTAGONISTS” (priority 2008, published 2010).

In assay [1] the target is T1, human adenosine A2a receptor (Homo sapiens, UniProt P29274).
T1 construct: expressed in transfected cells; host or cells: CHO-K1
Briefly: Adenosine A2a Receptor Functional Assay (A2AGAL2). The format is cell-based. Conditions: CHO-K1 cells, cAMP inducible beta-galactosidase reporter, 15 nM NECA agonist challenge. The gist of the method: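 Antagonist mode in CHO-K1 cells expressing human A2a with a cAMP-inducible β-galactosidase reporter (10K cells/well, cultured 2 days). 11-point compound curves preincubated ~15 min at room temperature in Ham's F-12/0.1% BSA, then 15 nM NECA challenge, 5.5–6 h at 37 °C. Colorimetric β-gal read at 405 nm; IC/EC50 fitted.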

The target in assay [2] is T2, human A2a adenosine receptor (Homo sapiens, UniProt P29274).
T2 construct: purchased PerkinElmer RB-HA2a; host or cells: HEK293
T2 sequence (P29274 whole entry): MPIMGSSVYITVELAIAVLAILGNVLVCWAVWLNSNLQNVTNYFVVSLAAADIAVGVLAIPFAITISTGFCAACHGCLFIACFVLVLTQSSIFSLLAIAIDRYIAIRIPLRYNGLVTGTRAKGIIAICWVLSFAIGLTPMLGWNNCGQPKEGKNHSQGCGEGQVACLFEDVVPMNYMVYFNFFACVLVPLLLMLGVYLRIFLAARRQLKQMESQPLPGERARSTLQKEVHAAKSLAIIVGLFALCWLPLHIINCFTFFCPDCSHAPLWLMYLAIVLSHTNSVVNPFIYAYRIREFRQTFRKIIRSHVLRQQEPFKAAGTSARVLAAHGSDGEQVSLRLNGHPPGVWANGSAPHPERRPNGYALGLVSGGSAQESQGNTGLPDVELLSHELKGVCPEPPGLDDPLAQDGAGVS
Description: Ligand Binding Assay for Adenosine A2a Receptor (A2A-B). Conditions: HEK293 plasma membrane, radioligand [3H]CGS21680. How it is done:
Ligand Binding Assay for Adenosine A2a Receptor
Ligand binding assay of adenosine A2a receptor was performed using plasma membrane of HEK293 cells containing human A2a adenosine receptor (PerkinElmer, RB-HA2a) and radioligand [^3H]CGS21680 (PerkinElmer, NET 1021). Assay was set up in 96-well polypropylene plate in total volume of 200 μL by sequentially adding 20 μL 1:20 diluted membrane, 130 μL assay buffer (50 mM Tris.HCl, pH7.4 10 mM MgCl2, 1 mM EDTA) containing [^3H] CGS21680, 50 μL diluted compound (4×) or vehicle control in assay buffer. Nonspecific binding was determined by […] NECA. Reaction was carried out at room temperature for 2 hours before filtering through 96-well GF/C filter plate pre-soaked in 50 mM Tris.HCl, pH7.4 containing 0.3% polyethylenimine. Plates were then washed 5 times with cold 50 mM Tris.HCl, pH7.4, dried and sealed at the bottom. Microscintillation fluid 30 μL was added to each well and the top sealed. Plates were counted on Packard Topcount for [^3H]. Data was analyzed in Microsoft Excel and GraphPad Prism programs. (Varani, K.; Gessi, S.; Dalpiaz, A.; Borea, P. A. British Journal of Pharmacology, 1996, 117, 1693)

Assay [3] deals with T3, human adenosine A1 receptor (Homo sapiens, UniProt P30542).
T3 construct: expressed in transfected cells; host or cells: CHO-K1
T3 sequence (P30542 1-326): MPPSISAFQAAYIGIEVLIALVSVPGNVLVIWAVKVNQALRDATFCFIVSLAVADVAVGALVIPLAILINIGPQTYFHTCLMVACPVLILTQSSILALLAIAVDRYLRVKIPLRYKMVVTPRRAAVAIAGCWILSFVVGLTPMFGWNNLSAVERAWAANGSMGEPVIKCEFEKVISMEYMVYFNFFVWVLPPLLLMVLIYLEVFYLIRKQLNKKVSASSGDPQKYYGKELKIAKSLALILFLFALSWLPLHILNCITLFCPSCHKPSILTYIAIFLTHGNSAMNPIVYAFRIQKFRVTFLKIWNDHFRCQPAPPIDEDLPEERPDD
Description: Adenosine A1 Receptor Functional Assay (A1GAL2). In kind it is cell-based. Conditions: CHO-K1 cells, cAMP inducible beta-galactosidase reporter, 4 nM r-PIA/1 uM Forskolin challenge. The gist of the method: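 CHO-K1 cells expressing the receptor with a cAMP-inducible β-galactosidase reporter were preincubated with compound (11-point curves) about 15 min at room temperature, then challenged with r-PIA (4 nM)/forskolin (1 µM) for 5.5–6 h at 37 °C. Lysates were read colorimetrically at 405 nm, and IC/EC50 was obtained by curve fitting.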

T1 sequence (P29274 whole entry): as the sequence (P29274 whole entry) above

As usually defined, the Ki is a dissociation constant, usually derived from enzyme kinetics or from competition with a known ligand. Low readings indicate tighter binding, high ones weaker binding. For the compound `Nc1nc(-c2ccc(Cl)o2)nc2sc(CN3CCC(F)CC3)cc12` [Example 89, 2-(5-Chloro-furan-2-yl)-6-(4-fluoro-piperidin-1-ylmethyl)-thieno[2,3-d]pyrimidin-4-ylamine hydrochloride], the Ki in assay [1] came out at 35.9 nM; in assay [2], 1.9 nM; in assay [3], 1080 nM.

Turning to `Nc1nc(-c2ccc(Cl)o2)nc2sc(CN3CCCC3)cc12` [Example 90, 2-(5-Chloro-furan-2-yl)-6-pyrrolidin-1-ylmethyl-thieno[2,3-d]pyrimidin-4-ylamine hydrochloride], the inhibitory constant (Ki) was 22.3 nM in assay [1], 3.7 nM in assay [2] and 712 nM in assay [3].

As to `Nc1nc(-c2ccco2)nc2sc(CNC34CC5CC(CC(C5)C3)C4)cc12` [Example 91, 6-(Adamantan-1-ylaminomethyl)-2-furan-2-yl-thieno[2,3-d]pyrimidin-4-ylamine], the Ki was 121 nM in assay [1], 15 nM in assay [2] and 1030 nM in assay [3].

For the compound `Nc1nc(-c2ccco2)nc2sc(CN3CCC(F)CC3)cc12` [Example 92, 6-(4-Fluoro-piperidin-1-ylmethyl)-2-furan-2-yl-thieno[2,3-d]pyrimidin-4-ylamine Hydrochloride], the inhibition constant (Ki) came to 18.9 nM in assay [1], 12 nM in assay [2] and 741 nM in assay [3].

With `Nc1nc(-c2ccc(Cl)o2)nc2sc(CN3CCCCCC3)cc12` [Example 93, 6-Azepan-1-ylmethyl-2-(5-chloro-furan-2-yl)-thieno[2,3-d]pyrimidin-4-ylamine], the values for the inhibition constant (Ki) in assay [1], in assay [2] and in assay [3] were 33.2 nM, 1.8 nM and 1420 nM, respectively.

As to `Nc1nc(-c2ccc(Cl)o2)nc2sc(CN3CC=CCC3)cc12` [Example 95, 2-(5-Chloro-furan-2-yl)-6-(3,6-dihydro-2H-pyridin-1-ylmethyl)-thieno[2,3-d]pyrimidin-4-ylamine], the figures for the Ki in assay [1], in assay [2] and in assay [3] were 10.7 nM, 3.4 nM and 188 nM, respectively.

Turning to `Nc1nc(C2CC2)nc2sc(CN3CC=CCC3)cc12` [Example 96, 2-Cyclopropyl-6-(3,6-dihydro-2H-pyridin-1-ylmethyl)-thieno[2,3-d]pyrimidin-4-ylamine], the Ki was 325 nM in assay [1], 1620 nM in assay [2] and 3020 nM in assay [3].

For the compound `Nc1nc(-c2ccc(Cl)o2)nc2sc(CN3CC=CC3)cc12` [Example 97, 2-(5-Chloro-furan-2-yl)-6-(2,5-dihydro-pyrrol-1-ylmethyl)-thieno[2,3-d]pyrimidin-4-ylamine], the inhibitory constant (Ki) in assay [1] was 10.2 nM; in assay [2], 0.54 nM; in assay [3] it was 783 nM.

For `Nc1nc(-c2ccco2)nc2sc(CN3CC=CCC3)cc12` [Example 98, 6-(3,6-Dihydro-2H-pyridin-1-ylmethyl)-2-furan-2-yl-thieno[2,3-d]pyrimidin-4-ylamine], the figures for the Ki in assay [1], in assay [2] and in assay [3] were 8.85 nM, 20.3 nM and 158 nM, respectively.

Consider `Nc1nc(-c2ccnc(Cl)c2)nc2sc(CN3CCOCC3)cc12` [Example 105, 2-(2-Chloro-pyridin-4-yl)-6-morpholin-4-ylmethyl-thieno[2,3-d]pyrimidin-4-ylamine], for which the Ki in assay [1] stood at 123 nM; in assay [2] it was 934 nM; in assay [3], 876 nM.

Consider `Nc1nc(-c2ccc(C(F)F)o2)nc2sc(CN3CCOCC3)cc12` [Example 107, 2-(5-Difluoromethyl-furan-2-yl)-6-morpholin-4-ylmethyl-thieno[2,3-d]pyrimidin-4-ylamine], for which the Ki stood at 30.5 nM in assay [1], 66.1 nM in assay [2] and 2700 nM in assay [3].
